Data reported in patent US5661165A, “((4-phenyl-1,2,5-thiadiazol-3-yl)oxy)methyl ester thiocyanic acid compounds, compositions containing them and their use as antimicrobial and marine antifouling agents” (The Dow Chemical Company, priority 1996, dated 1997).
≈ marks a conversion by molar mass, not a printed value. Read-outs that look alike come from different tables or passages of the source.

Assays:
Bacillus subtilis (Bs) = experiment: MIC against bacteria (nutrient agar); assay type: cell-based, Bacillus subtilis ATCC 8473; details: 30° C., 48 h, read-out: Minimum Inhibitory Concentration, Bs
[1] = test system: Enterobacter aerogenes (Ea); experiment: MIC against bacteria (nutrient agar); assay type: cell-based, Enterobacter aerogenes ATCC 13048; details: Klebsiella aerogenes, 30° C., 48 h, read-out: Minimum Inhibitory Concentration, Ea
Escherichia coli (Ec) = experiment: MIC against bacteria (nutrient agar); assay type: cell-based, Escherichia coli ATCC 11229; details: 30° C., 48 h, read-out: Minimum Inhibitory Concentration, Ec
[2] = test system: Klebsiella pneumoniae (Kp); experiment: MIC against bacteria (nutrient agar); assay type: cell-based, Klebsiella pneumoniae ATCC 8308; details: 30° C., 48 h, read-out: Minimum Inhibitory Concentration, Kp
Proteus vulgaris (PV) = experiment: MIC against bacteria (nutrient agar); assay type: cell-based, Proteus vulgaris ATCC 881; details: 30° C., 48 h, read-out: Minimum Inhibitory Concentration, Pv
[3] = test system: Psuedomonas aeruginosa (PRD-10); experiment: MIC against bacteria (nutrient agar); assay type: cell-based, Psuedomonas aeruginosa ATCC 15442; details: 30° C., 48 h, read-out: Minimum Inhibitory Concentration, PRD
[4] = test system: Psuedomonas aeruginosa (Pa); experiment: MIC against bacteria (nutrient agar); assay type: cell-based, Psuedomonas aeruginosa ATCC 10145; details: 30° C., 48 h, read-out: Minimum Inhibitory Concentration, Pa
Description: (§1) The antimicrobial activity of the compounds of the present invention is set forth as the minimum inhibitory concentration (MIC) for the active compounds and is determined for nine (9) bacteria, using nutrient agar, and seven (7) yeast and fungi, using malt yeast agar. This determination is conducted using a one percent solution of the test compound prepared in a mixture of acetone and water.
Nutrient agar is prepared at pH 6.8, representing a neutral medium, and at pH 8.2, representing an alkaline medium. The nutrient agars are prepared by adding 23 g of nutrient agar to one-liter of deionized water. In addition, the alkaline medium is prepared by adjusting a 0.04M solution of N-[tris-(hydroxymethyl)methyl]-glycine buffered deionized water with concentrated sodium hydroxide to a pH of 8.5.
(§2) The test tubes containing the agar are cooled in a water bath until the temperature of the agar is 48° C. Then, an appropriate amount of the one percent solution of the test compound is added (except in the controls where no compound is added) to the respective test tubes so that the final concentrations are 500, 250, 100, 50, 25, 10, 5, 2.5, 1.0 and zero parts per million of the test compound in the agar, thus having a known concentration of test compound dispersed therein. The contents of the test tubes are then transferred to respective petri plates. After drying for 24 hours, the petri plates containing nutrient agar are inoculated with bacteria and those containing malt yeast agar are inoculated with yeast and fungi.
The inoculation with bacteria is accomplished by using the following procedure. Twenty-four hour-cultures of each of the bacteria are prepared by incubating the respective bacteria in tubes containing nutrient broth for 24 hours at 30° C. in a shaker. Dilutions of each of the 24 hour-cultures are made so that nine separate suspensions (one for each of the nine test bacteria) are made, each containing 10^8 colony forming units (CFU) per mL of suspension of a particular bacteria. Aliquots of 0.3 mL of each of the bacterial suspensions are used to fill the individual wells of Steer's Replicator. For each microbial suspension, 0.3 mL was used to fill three wells (i.e., three wells of 0.3 mL each) so that for the nine different bacteria, 27 wells are filled. The Steer's Replicator is then used to inoculate both the neutral and alkaline pH nutrient agar petri plates.
The inoculated petri plates are incubated at 30° C. for 48 hours and then read to determine if the test compound which is incorporated into the agar prevented growth of the respective bacteria.
(§3) Table I lists the bacteria, yeast and fungi used in the MIC test described above along with their respective American Type Culture Collection (ATCC) identification numbers.

[5] = test system: Salmonella choleraesuis (Sc); experiment: MIC against bacteria (nutrient agar); assay type: cell-based, Salmonella choleraesuis ATCC 10708; details: Salmonella enterica, 30° C., 48 h, read-out: Minimum Inhibitory Concentration, Sc
[6] = test system: Staphylococcus aureus (Sa); experiment: MIC against bacteria (nutrient agar); assay type: cell-based, Staphylococcus aureus ATCC 6538; details: 30° C., 48 h, read-out: Minimum Inhibitory Concentration, Sa
Aperigillus niger (An) = experiment: MIC against yeast/fungi (malt yeast agar); assay type: cell-based, Aperigillus niger ATCC 16404; details: 30° C., fungi read after 72 h, read-out: Minimum Inhibitory Concentration, An
Description: as §1
(§4) Malt yeast agar is prepared by adding 3 g yeast extract and 45 g malt agar per liter of deionized water. The specific agar is dispensed in 30 mL aliquots into 25×200 mm test tubes, capped and autoclaved for 15 minutes at 115° C.
as §2
(§5) The inoculation with the yeast and fungi is accomplished as follows. Cultures of yeast and fungi are incubated for seven days on malt yeast agar at 30° C. These cultures are used to prepare suspensions by the following procedure. A suspension of each organism is prepared by adding 10 mL of sterile saline and 10 microliters of octylphenoxy polyethoxy ethanol to the agar slant of yeast or fungi. The sterile saline/octylphenoxy polyethoxy ethanol solution is then agitated with a sterile swab to suspend the microorganism grown on the slant. Each resulting suspension is diluted into sterile saline (1 part suspension to 9 parts sterile saline). Aliquots of these dilutions are placed in individual wells of Steer's Replicator and petri plates inoculated as previously described. The petri plates are incubated at 30° C. and read after 48 hours for yeast and 72 hours for fungi.
as §3

Candida albicans (Ca) = experiment: MIC against yeast/fungi (malt yeast agar); assay type: cell-based, Candida albicans ATCC 10231; details: 30° C., yeast read after 48 h, read-out: Minimum Inhibitory Concentration, Ca
Description: as §1, §4, §2, §5, §3

[7] = test system: Pencillium chrysogenum (Pc); experiment: MIC against yeast/fungi (malt yeast agar); assay type: cell-based, Pencillium chrysogenum ATCC 9480; details: 30° C., fungi read after 72 h, read-out: Minimum Inhibitory Concentration, Pc
Description: as §1, §4, §2, §5, §3

[8] = test system: Saccharomyces cerevisiae (Sc); experiment: MIC against yeast/fungi (malt yeast agar); assay type: cell-based, Saccharomyces cerevisiae ATCC 4105; details: 30° C., yeast read after 48 h, read-out: Minimum Inhibitory Concentration, Sc
Description: as §1, §4, §2, §5, §3

Trichoderma viride (Tv) = experiment: MIC against yeast/fungi (malt yeast agar); assay type: cell-based, Trichoderma viride ATCC 8678; details: 30° C., fungi read after 72 h, read-out: Minimum Inhibitory Concentration, Tv
Description: as §1, §4, §2, §5, §3

[9] = test system: Aureobasidium pullulan (Ap); experiment: MIC against yeast/fungi (malt yeast agar); assay type: cell-based, Aureobasidium pullulan ATCC 16622; details: 30° C., yeast 48 h / fungi 72 h, read-out: Minimum Inhibitory Concentration, Ap
Description: as §1, §4, §2, §5, §3

Fusarium oxysporum (Fo) = experiment: MIC against yeast/fungi (malt yeast agar); assay type: cell-based, Fusarium oxysporum ATCC 48112; details: 30° C., fungi read after 72 h, read-out: Minimum Inhibitory Concentration, Fo
Description: as §1, §4, §2, §5, §3

**Q.** How did the MIC (Bacillus subtilis (Bs); pH 6.8, nutrient agar) turn out when `N#CSCOc1nsnc1-c1ccc(F)cc1` [IV, ((4(4-Fluorophenyl)-1,2,5-thiadiazol-3-yl)oxy)methyl ester thiocyanic acid] was run?
**A.** The MIC was under 10 µg/mL.

**Q.** What about the MIC (Bacillus subtilis (Bs); pH 8.2, nutrient agar) of the same compound?
**A.** Its MIC is under 10 µg/mL.

**Q.** And the MIC ([1]; pH 6.8, nutrient agar)?
**A.** Its MIC is over 500 µg/mL.

**Q.** What about the MIC ([1]; pH 8.2, nutrient agar) of the same compound?
**A.** The MIC was 500 µg/mL (≈ 1870 µM).

**Q.** And the MIC (Escherichia coli (Ec); pH 6.8, nutrient agar)?
**A.** Its MIC is 500 µg/mL (≈ 1870 µM).

**Q.** And the MIC (Escherichia coli (Ec); pH 8.2, nutrient agar)?
**A.** Its MIC is over 500 µg/mL.

**Q.** And the MIC ([2]; pH 6.8, nutrient agar)?
**A.** The MIC was 500 µg/mL (≈ 1870 µM).

**Q.** And the MIC ([2]; pH 8.2, nutrient agar)?
**A.** Its MIC is 500 µg/mL (≈ 1870 µM).

**Q.** And the MIC (Proteus vulgaris (PV); pH 6.8, nutrient agar)?
**A.** The MIC was over 500 µg/mL.

**Q.** And the MIC (Proteus vulgaris (PV); pH 8.2, nutrient agar)?
**A.** Its MIC is 500 µg/mL (≈ 1870 µM).

**Q.** And the MIC ([3]; pH 6.8, nutrient agar)?
**A.** Its MIC is over 500 µg/mL.

**Q.** And the MIC ([3]; pH 8.2, nutrient agar)?
**A.** The MIC was over 500 µg/mL.

**Q.** What about the MIC ([4]; pH 6.8, nutrient agar) of the same compound?
**A.** The MIC was over 500 µg/mL.

**Q.** What about the MIC ([4]; pH 8.2, nutrient agar) of the same compound?
**A.** The MIC was over 500 µg/mL.

**Q.** What about the MIC ([5]; pH 6.8, nutrient agar) of the same compound?
**A.** Its MIC is 500 µg/mL (≈ 1870 µM).

**Q.** What about the MIC ([5]; pH 8.2, nutrient agar) of the same compound?
**A.** The MIC was over 500 µg/mL.

**Q.** What about the MIC ([6]; pH 6.8, nutrient agar) of the same compound?
**A.** Its MIC is under 10 µg/mL.

**Q.** What about the MIC ([6]; pH 8.2, nutrient agar) of the same compound?
**A.** The MIC was 25 µg/mL (≈ 93.5 µM).

**Q.** What about the MIC (Aperigillus niger (An)) of the same compound?
**A.** Its MIC is 2.5 µg/mL (≈ 9.35 µM).

**Q.** And the MIC (Candida albicans (Ca))?
**A.** Its MIC is 5 µg/mL (≈ 18.7 µM).

**Q.** What about the MIC [7] of the same compound?
**A.** The MIC was under 1 µg/mL.

**Q.** And the MIC [8]?
**A.** Its MIC is 2.5 µg/mL (≈ 9.35 µM).

**Q.** And the MIC (Trichoderma viride (Tv))?
**A.** The MIC was 500 µg/mL (≈ 1870 µM).

**Q.** And the MIC [9]?
**A.** Its MIC is 2.5 µg/mL (≈ 9.35 µM).

**Q.** And the MIC (Fusarium oxysporum (Fo))?
**A.** The MIC was 5 µg/mL (≈ 18.7 µM).

**Q.** With `N#CSCOc1nsnc1-c1cccc(F)c1` [III, ((4(3Fluorophenyl)-1,2,5-thiadiazol-3-yl)oxy)methyl ester thiocyanic acid] as the compound, how does the MIC (Bacillus subtilis (Bs); pH 6.8, nutrient agar) read?
**A.** The MIC was under 10 µg/mL.

**Q.** What about the MIC (Bacillus subtilis (Bs); pH 8.2, nutrient agar) of the same compound?
**A.** Its MIC is under 10 µg/mL.

**Q.** What about the MIC ([1]; pH 6.8, nutrient agar) of the same compound?
**A.** The MIC was over 500 µg/mL.

**Q.** And the MIC ([1]; pH 8.2, nutrient agar)?
**A.** The MIC was 500 µg/mL (≈ 1870 µM).

**Q.** What about the MIC (Escherichia coli (Ec); pH 6.8, nutrient agar) of the same compound?
**A.** The MIC was 500 µg/mL (≈ 1870 µM).

**Q.** And the MIC (Escherichia coli (Ec); pH 8.2, nutrient agar)?
**A.** Its MIC is over 500 µg/mL.

**Q.** What about the MIC ([2]; pH 6.8, nutrient agar) of the same compound?
**A.** Its MIC is 500 µg/mL (≈ 1870 µM).

**Q.** And the MIC ([2]; pH 8.2, nutrient agar)?
**A.** The MIC was 500 µg/mL (≈ 1870 µM).

**Q.** And the MIC (Proteus vulgaris (PV); pH 6.8, nutrient agar)?
**A.** Its MIC is over 500 µg/mL.

**Q.** And the MIC (Proteus vulgaris (PV); pH 8.2, nutrient agar)?
**A.** Its MIC is 500 µg/mL (≈ 1870 µM).

**Q.** And the MIC ([3]; pH 6.8, nutrient agar)?
**A.** The MIC was over 500 µg/mL.

**Q.** And the MIC ([3]; pH 8.2, nutrient agar)?
**A.** Its MIC is over 500 µg/mL.

**Q.** And the MIC ([4]; pH 6.8, nutrient agar)?
**A.** Its MIC is over 500 µg/mL.

**Q.** What about the MIC ([4]; pH 8.2, nutrient agar) of the same compound?
**A.** Its MIC is over 500 µg/mL.

**Q.** What about the MIC ([5]; pH 6.8, nutrient agar) of the same compound?
**A.** The MIC was 500 µg/mL (≈ 1870 µM).

**Q.** What about the MIC ([5]; pH 8.2, nutrient agar) of the same compound?
**A.** The MIC was over 500 µg/mL.

**Q.** And the MIC ([6]; pH 6.8, nutrient agar)?
**A.** Its MIC is under 10 µg/mL.

**Q.** And the MIC ([6]; pH 8.2, nutrient agar)?
**A.** Its MIC is 25 µg/mL (≈ 93.5 µM).

**Q.** What about the MIC (Aperigillus niger (An)) of the same compound?
**A.** The MIC was under 1 µg/mL.

**Q.** What about the MIC (Candida albicans (Ca)) of the same compound?
**A.** Its MIC is 5 µg/mL (≈ 18.7 µM).

**Q.** And the MIC [7]?
**A.** Its MIC is under 1 µg/mL.

**Q.** What about the MIC [8] of the same compound?
**A.** The MIC was under 1 µg/mL.

**Q.** And the MIC (Trichoderma viride (Tv))?
**A.** The MIC was 500 µg/mL (≈ 1870 µM).

**Q.** What about the MIC [9] of the same compound?
**A.** The MIC was under 1 µg/mL.

**Q.** And the MIC (Fusarium oxysporum (Fo))?
**A.** Its MIC is 100 µg/mL (≈ 374 µM).
